Patent US20260159810A1, “MEDIUM COMPOSITION FOR INDUCING DIFFERENTIATION FROM STEM CELLS TO MACROPHAGES AND DIFFERENTIATION METHOD USING SAME” (SUNGKWANG MEDICAL FOUNDATION, priority 2022, published 2026)

Legend:
[1] = test system: macrophage-specific markers (MHC 1, MHC 2, CD11b, CD86, CX3CR1, CD16) in hPSC-derived floating cells; assay: Identification of macrophage-specific markers by FACS; type: cell-based, human; settings: medium supplemented with fasudil during differentiation to macrophages
Method: The expression pattern of markers specific to macrophages in the cells obtained in Example 1, Comparative Example 1, and Comparative Example 2 was investigated. Specifically, confirmation was performed using fluorescence-activated cell sorting (FACS, BD FACSCalibur™). Results of cells expressing CD11b, a surface marker of macrophages, and CD86, which is expressed in antigen presenting cells, confirmed through FACS are shown in FIG. 5. Results of cells expressing CX3CR1, which regulates macrophage function in inflammatory sites, and CD16, which is associated with antibody-dependent cell-mediated cytotoxicity (ADCC), confirmed through FACS are shown in FIG. 6.

mouse thymus cells = assay: Measurement of phagocytosis: differentiated macrophages co-cultured with fluorescently stained target cells; type: cell-based; settings: various E:T ratios; cells positive for both CD11b and target-cell fluorescence; FIG. 7
Method: Phagocytosis of macrophages obtained from Example 1 and Comparative Example 1 was confirmed. Specifically, macrophages (effectors) obtained from Example 1 and Comparative Example 1 were co-cultured with mouse thymus cells (targets, fluorescently stained) at various E:T (effector:target) ratios. After co-culture, cells were collected and phagocytosis of macrophages was measured by measuring cells that simultaneously expressed macrophage-specific markers (CD11b) and fluorescence that had been stained on target cells.

With `O=S(=O)(c1cccc2cnccc12)N1CCCNCC1` [fasudil] the “expression of macrophage-specific markers” value [1] was “increased” and the phagocytosis of macrophages (mouse thymus cells) was “increased”.
